Experimental data as given in ChEMBL document CHEMBL5665443, “Enzyme Inhibitor Single Concentration assay results for EUbOPEN Chemogenomics Library” (2024).

Tests used:
[1] = target: T1, Endonuclease III-like protein 1 (Homo sapiens) (UniProt P78549); settings: Hit No;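 further: enzyme assay tracking NTHL1 cutting and release of a quenched double-stranded DNA oligo substrate, read as fluorescence at 594 nm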
T1 sequence (whole entry): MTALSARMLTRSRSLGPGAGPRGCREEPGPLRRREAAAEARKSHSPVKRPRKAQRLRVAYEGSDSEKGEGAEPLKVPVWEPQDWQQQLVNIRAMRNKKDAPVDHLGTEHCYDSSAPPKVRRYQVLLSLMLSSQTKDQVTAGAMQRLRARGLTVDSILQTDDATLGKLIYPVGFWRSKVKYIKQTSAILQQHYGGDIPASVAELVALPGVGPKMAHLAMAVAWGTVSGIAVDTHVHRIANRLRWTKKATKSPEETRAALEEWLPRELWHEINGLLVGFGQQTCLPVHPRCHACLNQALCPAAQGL
Description: Inhibition of NTHL1 by quantifying inhibition of NTHL1-mediated cleavage and dissociation of quenched duplex DNA oligonucleotides, measured as fluorescence at 594 nm.

[2] = target: T2, Single-strand selective monofunctional uracil DNA glycosylase (Homo sapiens) (UniProt Q53HV7); settings: Hit No;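 further: enzymatic SMUG1 assay coupled with APE1, reading fluorescence at 594 nm released when a quenched double-stranded DNA oligonucleotide substrate is cleaved and separated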
T2 sequence (whole entry): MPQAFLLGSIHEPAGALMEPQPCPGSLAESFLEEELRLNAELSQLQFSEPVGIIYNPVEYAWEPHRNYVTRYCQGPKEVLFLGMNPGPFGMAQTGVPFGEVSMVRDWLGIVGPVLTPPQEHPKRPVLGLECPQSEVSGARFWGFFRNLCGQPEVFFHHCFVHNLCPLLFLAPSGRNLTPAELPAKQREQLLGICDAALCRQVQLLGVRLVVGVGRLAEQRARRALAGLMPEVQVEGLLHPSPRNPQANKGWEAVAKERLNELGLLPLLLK
Description: Inhibition of SMUG1 by quantifying inhibition of SMUG1-mediated cleavage and dissociation of quenched duplex DNA oligonucleotides, measured as fluorescence at 594 nm. To generate a functional strand incision and increase turn-over this assay is coupled to APE1.

[3] = target: G/T mismatch-specific thymine DNA glycosylase (Homo sapiens) (UniProt Q13569); settings: Hit No;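 further: human TDG cleavage of quenched duplex DNA oligonucleotides coupled to APE1, strand release read as fluorescence at 594 nm, inhibition of TDG activity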
G/T mismatch-specific thymine DNA glycosylase (Homo sapiens), sequence (Q13569 whole entry): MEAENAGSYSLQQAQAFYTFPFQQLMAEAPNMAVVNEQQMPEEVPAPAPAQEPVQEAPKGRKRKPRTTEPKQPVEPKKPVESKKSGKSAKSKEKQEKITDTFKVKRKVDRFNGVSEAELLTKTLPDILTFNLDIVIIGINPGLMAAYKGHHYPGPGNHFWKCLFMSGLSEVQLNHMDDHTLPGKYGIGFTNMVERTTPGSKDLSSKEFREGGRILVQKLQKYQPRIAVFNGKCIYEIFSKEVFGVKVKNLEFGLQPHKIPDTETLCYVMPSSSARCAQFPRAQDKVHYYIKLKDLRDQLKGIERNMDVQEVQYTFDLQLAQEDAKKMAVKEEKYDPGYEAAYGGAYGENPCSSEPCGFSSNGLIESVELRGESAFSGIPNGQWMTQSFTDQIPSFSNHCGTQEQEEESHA
Description: Inhibition of TDG by quantifying inhibition of TDG-mediated cleavage and dissociation of quenched duplex DNA oligonucleotides, measured as fluorescence at 594 nm. To generate a functional strand incision and increase turn-over this assay is coupled to APE1.

[4] = target: Uracil-DNA glycosylase (Homo sapiens) (UniProt P13051); settings: Hit No;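 further: UNG excision on a quenched double-stranded DNA oligo probe, with APE1 added for strand incision and turnover, read as fluorescence at 594 nm as strands separate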
Uracil-DNA glycosylase (Homo sapiens), sequence (P13051 whole entry): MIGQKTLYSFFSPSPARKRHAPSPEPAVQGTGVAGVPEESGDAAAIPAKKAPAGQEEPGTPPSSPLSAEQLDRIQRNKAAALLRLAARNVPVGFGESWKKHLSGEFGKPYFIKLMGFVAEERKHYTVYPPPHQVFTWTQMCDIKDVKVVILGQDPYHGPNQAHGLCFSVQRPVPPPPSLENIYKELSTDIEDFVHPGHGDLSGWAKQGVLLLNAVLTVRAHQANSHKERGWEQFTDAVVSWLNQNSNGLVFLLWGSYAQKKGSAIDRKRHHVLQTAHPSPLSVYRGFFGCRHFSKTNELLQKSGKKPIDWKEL
Description: Inhibition of UNG by quantifying inhibition of UNG-mediated cleavage and dissociation of quenched duplex DNA oligonucleotides, measured as fluorescence at 594 nm. To generate a functional strand incision and increase turn-over this assay is coupled to APE1.

[5] = target: N-glycosylase/DNA lyase (Homo sapiens) (UniProt O15527); settings: Compound Concentration 10.0 uM, Hit No;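 further: OGG1 cleavage of a quenched duplex DNA oligonucleotide, coupled to APE1 for strand incision, read as fluorescence at 594 nm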
N-glycosylase/DNA lyase (Homo sapiens), sequence (O15527 whole entry): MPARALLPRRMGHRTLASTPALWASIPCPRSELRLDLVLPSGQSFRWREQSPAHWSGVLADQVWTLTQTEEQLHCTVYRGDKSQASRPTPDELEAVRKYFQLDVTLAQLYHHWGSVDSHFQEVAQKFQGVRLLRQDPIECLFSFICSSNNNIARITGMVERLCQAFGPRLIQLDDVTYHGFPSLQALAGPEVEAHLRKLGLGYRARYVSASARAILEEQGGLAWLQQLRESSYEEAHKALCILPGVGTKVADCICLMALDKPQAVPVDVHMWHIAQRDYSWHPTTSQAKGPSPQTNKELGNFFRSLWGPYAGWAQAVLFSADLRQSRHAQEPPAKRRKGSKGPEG
Description: Inhibition of OGG1 by quantifying inhibition of OGG1-mediated cleavage and dissociation of quenched duplex DNA oligonucleotides, measured as fluorescence at 594 nm. To generate a functional strand incision and increase turn-over this assay is coupled to APE1.

[6] = target: Endonuclease 8-like 1 (Homo sapiens) (UniProt Q96FI4); settings: Compound Concentration 10.0 uM, Hit No;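 further: fluorescence at 594 nm from quenched duplex DNA oligonucleotides released by NEIL1 cleavage and strand separation, reported as reduction of this enzyme activity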
Endonuclease 8-like 1 (Homo sapiens), sequence (Q96FI4 whole entry): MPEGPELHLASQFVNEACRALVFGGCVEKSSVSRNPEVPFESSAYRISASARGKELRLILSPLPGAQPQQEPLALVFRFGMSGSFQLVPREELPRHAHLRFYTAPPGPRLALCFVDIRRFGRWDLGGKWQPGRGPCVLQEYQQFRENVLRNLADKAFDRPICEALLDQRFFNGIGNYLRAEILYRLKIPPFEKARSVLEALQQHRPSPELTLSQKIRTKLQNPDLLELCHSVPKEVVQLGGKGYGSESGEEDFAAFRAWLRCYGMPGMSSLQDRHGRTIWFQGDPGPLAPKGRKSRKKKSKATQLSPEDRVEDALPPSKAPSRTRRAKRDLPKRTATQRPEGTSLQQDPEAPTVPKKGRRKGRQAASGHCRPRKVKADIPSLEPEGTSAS
Description: Inhibition of NEIL1 by quantifying inhibition of NEIL1-mediated cleavage and dissociation of quenched duplex DNA oligonucleotides, measured as fluorescence at 594 nm.

[7] = target: T3, Endonuclease 8-like 2 (Homo sapiens) (UniProt Q969S2); settings: Compound Concentration 10.0 uM, Hit No;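 further: fluorescence at 594 nm reports NEIL2 cutting and release of a quenched double-stranded DNA oligo substrate, reduced signal read as inhibition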
T3 sequence (whole entry): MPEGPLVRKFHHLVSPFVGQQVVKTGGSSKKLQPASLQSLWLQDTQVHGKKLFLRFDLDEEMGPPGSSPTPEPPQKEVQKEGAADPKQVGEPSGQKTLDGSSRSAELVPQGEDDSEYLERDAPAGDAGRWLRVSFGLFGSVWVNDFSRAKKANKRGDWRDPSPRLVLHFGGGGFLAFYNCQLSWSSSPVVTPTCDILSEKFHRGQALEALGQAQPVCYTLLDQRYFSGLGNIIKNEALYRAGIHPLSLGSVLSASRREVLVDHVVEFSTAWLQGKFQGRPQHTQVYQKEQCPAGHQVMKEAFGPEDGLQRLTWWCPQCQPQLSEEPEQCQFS
Description: Inhibition of NEIL2 by quantifying inhibition of NEIL2-mediated cleavage and dissociation of quenched duplex DNA oligonucleotides, measured as fluorescence at 594 nm.

Compound	inhibition ([1]; Compound Concentration 1.0 uM)	inhibition ([2]; Compound Concentration 1.0 uM)	inhibition ([3]; Compound Concentration 1.0 uM)	inhibition ([4]; Compound Concentration 1.0 uM)	inhibition ([1]; Compound Concentration 10.0 uM)	inhibition [5]	inhibition ([2]; Compound Concentration 10.0 uM)	inhibition [6]	inhibition ([3]; Compound Concentration 10.0 uM)	inhibition [7]	inhibition ([4]; Compound Concentration 10.0 uM)
CCOc1cc2ncc(C#N)c(Nc3ccc(OCc4cccc(F)c4)c(Cl)c3)c2cc1NC(=O)/C=C/CN(C)C	-5.49%	11.5%	25.8%	3.4%	–	–	–	–	–	–	–
Cc1cn2cc(CC(=O)N3CCC4(CC3)CN(Cc3ccc(-n5nccn5)cc3Cl)C4)nc2s1	–	–	–	–	6.32%	-2.88%	-0.227%	-6.88%	-1.26%	–	–
N#Cc1cc2c(OCC(O)CN3CCN(C(c4ccccc4)c4ccccc4)CC3)cccc2[nH]1 (racemic)	–	–	–	–	-4.67%	-4.64%	–	7.06%	-7.45%	-1.98%	-9.6%
Cc1c(C(=O)Nc2ccc(N3C[C@@H](C)O[C@@H](C)C3)nc2)cccc1-c1ccc(OC(F)(F)F)cc1	–	–	–	–	-3.21%	-6.4%	-0.0333%	-5.39%	-4.8%	7.5%	–
CC[N+](CC)(CC)CCOc1ccc(/C=C/c2ccccc2)cc1	–	–	–	–	0.568%	–	8.74%	3.86%	–	0.669%	1.13%
Cc1ccc(F)cc1C(=O)Nc1ccc(C(=O)N2Cc3cccn3Cc3ccccc32)c(Cl)c1	–	–	–	–	18.1%	-6.45%	-2.41%	-2.72%	-0.756%	-4.48%	–
Cc1nc2ccc(Oc3ccc(F)cc3)cc2c(=O)n1C[C@H]1CCCN(C(C)C)C1	–	–	–	–	-3.56%	–	-4.48%	6.38%	-8.54%	–	-4.71%
CCN1CCC[C@H]1CNC(=O)c1c(OC)ccc(Br)c1OC	–	–	–	–	-4.67%	-3.96%	-6.28%	-9.25%	-0.58%	-5.97%	–
Cc1csc(NC(=O)c2cc(F)cc(Oc3cncnc3)c2)n1	–	–	–	–	4.86%	-8.23%	3.26%	-4.5%	5.04%	3.51%	–
CC(C)(N)C(=O)N[C@H](COCc1ccccc1)C(=O)N1CCC2(CC1)CN(S(C)(=O)=O)c1ccccc12	–	–	–	–	-1.74%	–	-6.91%	7.36%	6.18%	7%	-9.48%
CC(C)Oc1ccc(-c2nn([C@@H](C)c3oc4ccc(F)cc4c(=O)c3-c3cccc(F)c3)c3ncnc(N)c23)cc1F	–	–	–	–	8.46%	8.77%	23.6%	-4.09%	80.6%	–	6.08%
C[C@@H](NCCCc1cccc(C(F)(F)F)c1)c1cccc2ccccc12	–	–	–	–	-5.41%	-4.37%	8.59%	1.28%	-8.6%	13.5%	–
Cc1c(C(=O)Nc2cccc(C(F)(F)F)c2)cc(-c2ccccc2)n1CCCN1CCOCC1	–	–	–	–	-7.69%	-6.32%	6.03%	0.00926%	–	–	-3.84%
c1ccc2oc(-c3csc(C4CCN(Cc5nc6ncccc6[nH]5)CC4)n3)cc2c1	–	–	–	–	-1.29%	2.49%	–	-4.83%	76.8%	1.3%	-7.49%
CCCCCCCCc1ccc(CCC(N)(CO)CO)cc1	–	–	–	–	-6.87%	-9.6%	1.32%	4.69%	26.4%	-1.98%	–
Cc1ccccc1N1CCN(S(=O)(=O)C[C@]23CC[C@H](C[C@@H]2NC(=O)[C@@H](N)CCS(C)(=O)=O)C3(C)C)CC1	–	–	–	–	20.2%	-1.3%	–	10.9%	-7.58%	-8.47%	-9.38%
N=C(N)NCCC[C@H](NC(=O)C12CC3CC(CC(C3)C1)C2)C(=O)N[C@@H](Cc1ccccc1)C(N)=O	–	–	–	–	13.8%	–	-6%	4.9%	–	-4.94%	-7.87%
